{
  "source": "patent US20250171495A1",
  "about": "“MUTLI-TARGETED SERINE PROTEASE INHIBITORS FOR TREATMENT OF CANCER AND VIRAL INFECTION” (Washington University, priority 2023, published 2025)",
  "data": [
    {"test_system": "VSV-SARS-CoV-2", "experiment": "microbe, parasite or virus in culture", "settings": "Vesicular stomatitis virus, Calu-3, in Homo sapiens, read-out: VSV SARS CoV-2 Cell Entry EC50 (nM)", "units": {"EC50": "nM"}, "values": [
      {"compound": "CCC(C)[C@H](NC(C)=O)C(=O)N[C@@H](CCC(N)=O)C(=O)N[C@@H](Cc1ccccc1)C(=O)N[C@@H](CCCNC(=N)N)C(=O)c1nc2ccccc2s1", "note": "(stereo partly drawn) [MM3116, N-[(S)-1-[N-(S)-1-[(1,3-benzothiazol-2-yl)carbonyl]-4-guanidinobutylcarbamoyl]-2-phenylethyl](S)-2-[(2S)-2-acetylamino-3-methylvalerylamino]glutaramide]", "EC50": 3.6},
      {"compound": "CC(=O)NCC(=O)N[C@@H](CCC(N)=O)C(=O)N[C@@H](Cc1ccccc1)C(=O)N[C@@H](CCCNC(=N)N)C(=O)c1nc2ccccc2s1", "note": "[MM3122, N-[(S)-1-[N-(S)-1-[(1,3-benzothiazol-2-yl)carbonyl]-4-guanidinobutylcarbamoyl]-2-phenylethyl](S)-2-[(acetylaminomethyl)carbonylamino]glutaramide]", "EC50": 0.43},
      {"compound": "CC(=O)N1CCC[C@H]1C(=O)N[C@@H](CCC(N)=O)C(=O)N[C@@H](Cc1ccccc1)C(=O)N[C@@H](CCCNC(=N)N)C(=O)c1nc2ccccc2s1", "note": "[MM3123, N-[(S)-1-[N-(S)-1-[(1,3-benzothiazol-2-yl)carbonyl]-4-guanidinobutylcarbamoyl]-2-phenylethyl](S)-2-[(S)-1-acetyl-2-pyrrolidinylcarbonylamino] glutaramide]", "EC50": 0.86},
      {"compound": "CC(=O)N[C@@H](CC(C)C)C(=O)N[C@@H](CCC(N)=O)C(=O)N[C@@H](Cc1ccccc1)C(=O)N[C@@H](CCCNC(=N)N)C(=O)c1nc2ccccc2s1", "note": "[MM3131, N-[(S)-1-[N-(S)-1-[(1,3-benzothiazol-2-yl)carbonyl]-4-guanidinobutylcarbamoyl]-2-phenylethyl](S)-2-[(S)-2-acetylamino-4-methylvalerylamino]glutaramide]", "EC50": 10.7},
      {"compound": "CC(=O)N[C@@H](CCC(N)=O)C(=O)N[C@@H](Cc1ccccc1)C(=O)N[C@@H](CCCNC(=N)N)C(=O)c1nc2ccccc2s1", "note": "[MM3144, N-[(S)-1-[N-(S)-1-[(1,3-benzothiazol-2-yl)carbonyl]-4-guanidinobutylcarbamoyl]-2-phenylethyl](S)-2-acetylaminoglutaramide]", "EC50": 0.53},
      {"compound": "CCC(C)[C@H](NC(C)=O)C(=O)N[C@@H](CCC(N)=O)C(=O)N[C@@H](CO)C(=O)N[C@@H](CCCNC(=N)N)C(=O)c1nc2ccccc2s1", "note": "(stereo partly drawn) [MM3177, N-[(S)-2-hydroxy-1-[N-(S)-1-[(1,3-benzothiazol-2-yl)carbonyl]-4-guanidinobutylcarbamoyl]ethyl](S)-2-[(2S)-2-acetylamino-3-methylvalerylamino]glutaramide]", "EC50": 36},
      {"compound": "CCC(C)[C@H](NC(C)=O)C(=O)N[C@@H](CCC(N)=O)C(=O)N[C@@H](C)C(=O)N[C@@H](CCCNC(=N)N)C(=O)c1nc2ccccc2s1", "note": "(stereo partly drawn) [MM3178, N-[(S)-1-[N-(S)-1-[(1,3-benzothiazol-2-yl)carbonyl]-4-guanidinobutylcarbamoyl]ethyl](S)-2-[(2S)-2-acetylamino-3-methylvalerylamino]glutaramide]", "EC50": 10.8},
      {"compound": "CCC(C)[C@H](NC(C)=O)C(=O)N[C@@H](CCC(N)=O)C(=O)N[C@H](C(=O)N[C@H](CCCNC(=N)N)C(=O)c1nc2ccccc2s1)C(C)C", "note": "(stereo partly drawn) [MM3180-1, N-[(S)-2-methyl-1-[N-(R)-1-[(1,3-benzothiazol-2-yl)carbonyl]-4-guanidinobutylcarbamoyl]propyl](S)-2-[(2S)-2-acetylamino-3-methylvalerylamino]glutaramide]", "EC50": 5.3},
      {"compound": "CCC(C)[C@H](NC(C)=O)C(=O)N[C@@H](CCC(N)=O)C(=O)N[C@H](C(=O)N[C@@H](CCCNC(=N)N)C(=O)c1nc2ccccc2s1)C(C)C", "note": "(stereo partly drawn) [MM3180-2, N-[(S)-2-methyl-1-[N-(S)-1-[(1,3-benzothiazol-2-yl)carbonyl]-4-guanidinobutylcarbamoyl]propyl](S)-2-[(2S)-2-acetylamino-3-methylvalerylamino]glutaramide]", "EC50": 12},
      {"compound": "CCC(C)[C@H](NC(C)=O)C(=O)N[C@@H](CCC(N)=O)C(=O)N[C@H](C(=O)N[C@@H](CCCNC(=N)N)C(=O)c1nc2ccccc2s1)C(C)O", "note": "(stereo partly drawn) [MM3186, N-[(1S)-2-hydroxy-1-[N-(S)-1-[(1,3-benzothiazol-2-yl)carbonyl]-4-guanidinobutylcarbamoyl]propyl](S)-2-[(2S)-2-acetylamino-3-methylvalerylamino]glutaramide]", "EC50": 18.5},
      {"compound": "CCC(C)[C@H](NC(C)=O)C(=O)N[C@@H](CCC(N)=O)C(=O)N[C@@H](Cc1c[nH]c2ccccc12)C(=O)N[C@@H](CCCNC(=N)N)C(=O)c1nc2ccccc2s1", "note": "(stereo partly drawn) [MM3187, N-[(S)-2-(3-indolyl)-1-[N-(S)-1-[(1,3-benzothiazol-2-yl)carbonyl]-4-guanidinobutylcarbamoyl]ethyl](S)-2-[(2S)-2-acetylamino-3-methylvalerylamino]glutaramide]", "EC50": 22},
      {"compound": "CC(=O)N1CCC[C@H]1C(=O)N[C@@H](CO)C(=O)N[C@@H](CCCCN)C(=O)N[C@@H](CCCNC(=N)N)C(=O)c1nc2ccccc2s1", "note": "[MM3194A, N-[(S)-2-hydroxy-1-[N-(S)-5-amino-1-[N-(S)-1-[(1,3-benzothiazol-2-yl)carbonyl]-4-guanidinobutylcarbamoyl]pentylcarbamoy1]ethyl]-(S)-1-acetyl-2-pyrrolidinecarboxamide]", "EC50": 613},
      {"compound": "CCC(C)[C@H](NC(C)=O)C(=O)N[C@@H](CO)C(=O)N[C@@H](Cc1ccccc1)C(=O)N[C@@H](CCCNC(=N)N)C(=O)c1nc2ccccc2s1", "note": "(stereo partly drawn) [MM4009-2, N-[(S)-2-hydroxy-1-[N-(S)-1-[N-(S)-1-[(1,3-benzothiazol-2-yl)carbonyl]-4-guanidinobutylcarbamoyl]-2-phenylethylcarbamoyl]ethyl] (2S)-2-acetylamino-3-methylvaleramide]", "EC50": 40.3},
      {"compound": "CCC(C)[C@H](NC(C)=O)C(=O)N[C@@H](CCSC)C(=O)N[C@@H](Cc1ccccc1)C(=O)N[C@H](CCCNC(=N)N)C(=O)c1nc2ccccc2s1", "note": "(stereo partly drawn) [MM4027-1, N-[(S)-3-(methylthio)-1-[N-(S)-1-[N-(R)-1-[(1,3-benzothiazol-2-yl)carbonyl]-4-guanidinobutylcarbamoyl]-2-phenylethylcarbamoyl]propyl](2S)-2-acetylamino-3-methylvaleramide]", "EC50": 92.3},
      {"compound": "CCC(C)[C@H](NC(C)=O)C(=O)N[C@H](C(=O)N[C@@H](Cc1ccccc1)C(=O)N[C@@H](CCCNC(=N)N)C(=O)c1nc2ccccc2s1)C(C)O", "note": "(stereo partly drawn) [MM4028-2, N-[(1S)-2-hydroxy-1-[N-(S)-1-[N-(S)-1-[(1,3-benzothiazol-2-yl)carbonyl]-4-guanidinobutylcarbamoyl]-2-phenylethylcarbamoyl]propyl](2S)-2-acetylamino-3-methylvaleramide]", "EC50": 103},
      {"compound": "CCC(C)[C@H](NC(C)=O)C(=O)N[C@@H](CCC(=O)O)C(=O)N[C@@H](Cc1ccccc1)C(=O)N[C@@H](CCCNC(=N)N)C(=O)c1nc2ccccc2s1", "note": "(stereo partly drawn) [MM4037-2, (S)-4-[(2S)-2-acetylamino-3-methylvalerylamino]-4-[N-(S)-1-[N-(S)-1-[(1,3-benzothiazol-2-yl)carbonyl]-4-guanidinobutylcarbamoyl]-2-phenylethylcarbamoyl]butyric acid]", "EC50": 23.9},
      {"compound": "CCC(C)[C@H](NC(C)=O)C(=O)N[C@H](Cc1cc2ccccc2[nH]1)C(=O)N[C@@H](Cc1ccccc1)C(=O)N[C@@H](CCCNC(=N)N)C(=O)c1nc2ccccc2s1", "note": "(stereo partly drawn) [MM4038, N-[(R)-2-(2-indolyl)-1-[N-(S)-1-[N-(S)-1-[(1,3-benzothiazol-2-yl)carbonyl]-4-guanidinobutylcarbamoyl]-2-phenylethylcarbamoy1]ethyl](2S)-2-acetylamino-3-methylvaleramide]", "EC50": 226},
      {"compound": "N=C(N)NCCC[C@H](NC(=O)[C@H](Cc1ccccc1)NC(=O)[C@H](N)Cc1c[nH]c2ccccc12)C(=O)c1nc2ccccc2s1", "note": "[PK-1-18A1, N-[(S)-1-[(1,3-benzothiazol-2-yl)carbonyl]-4-guanidinobutyl](S)-2-[(R)-2-amino-3-(3-indolyl)propionylamino]-3-phenylpropionamide]", "EC50": 356},
      {"compound": "N=C(N)NCCC[C@H](NC(=O)[C@H](Cc1ccccc1)NC(=O)[C@H](N)Cc1c[nH]c2ccccc12)C(=O)c1nc2ccc(C(=O)O)cc2s1", "note": "[PK-1-45A1, 2-[(S)-2-[(S)-2-[(R)-2-amino-3-(3-indolyl)propionylamino]-3-phenylpropionylamino]-5-guanidinovaleryl]-1,3-benzothiazole-6-carboxylic acid]", "EC50": 105},
      {"compound": "CC(=O)N[C@H](Cc1c[nH]c2ccccc12)C(=O)N[C@@H](Cc1ccccc1)C(=O)N[C@@H](CCCNC(=N)N)C(=O)c1nc2ccccc2s1", "note": "[PK-1-89A1, N-[(S)-1-[(1,3-benzothiazol-2-yl)carbonyl]-4-guanidinobutyl](S)-2-[(R)-2-acetylamino-3-(3-indolyl)propionylamino]-3-phenylpropionamide]", "EC50": 140},
      {"compound": "CC(=O)N[C@H](Cc1c[nH]c2ccccc12)C(=O)N[C@@H](Cc1ccccc1)C(=O)N[C@@H](CCCNC(=N)N)C(=O)c1nc2ccc(C(=O)O)cc2s1", "note": "[PK-1-93, 2-[(S)-2-[(S)-2-[(R)-2-acetylamino-3-(3-indolyl)propionylamino]-3-phenylpropionylamino]-5-guanidinovaleryl]-1,3-benzothiazole-6-carboxylic acid]", "EC50": 141},
      {"compound": "CC(=O)N[C@@H](Cc1c[nH]c2ccccc12)C(=O)N[C@@H](Cc1ccccc1)C(=O)N[C@@H](CCCNC(=N)N)C(=O)c1nc2ccccc2s1", "note": "[PK-1-102A1, N-[(S)-1-[(1,3-benzothiazol-2-yl)carbonyl]-4-guanidinobutyl](S)-2-[(S)-2-acetylamino-3-(3-indolyl)propionylamino]-3-phenylpropionamide]", "EC50": 1380},
      {"compound": "CC(=O)N[C@@H](Cc1c[nH]c2ccccc12)C(=O)N[C@@H](Cc1ccccc1)C(=O)N[C@@H](CCCNC(=N)N)C(=O)c1nc2ccc(C(=O)O)cc2s1", "note": "[PK-1-103, 2-[(S)-2-[(S)-2-[(S)-2-acetylamino-3-(3-indolyl)propionylamino]-3-phenylpropionylamino]-5-guanidinovaleryl]-1,3-benzothiazole-6-carboxylic acid]", "EC50": 116},
      {"compound": "CC(=O)N[C@@H](Cc1c[nH]c2ccccc12)C(=O)N[C@@H](CC(C)C)C(=O)N[C@@H](CCCNC(=N)N)C(=O)c1nc2ccc(C(=O)O)cc2s1", "note": "[PK-1-105, 2-[(S)-2-[(S)-2-[(S)-2-acetylamino-3-(3-indolyl)propionylamino]-4-methylvalerylamino]-5-guanidinovaleryl]-1,3-benzothiazole-6-carboxylic acid]", "EC50": 721}
    ]}
  ]
}
